Assay results published in patent publication US20240368214A1, “POSITIVE NMDA-MODULATING COMPOUNDS AND METHODS OF USE THEREOF” (SAGE THERAPEUTICS, INC., priority 2021, published 2024).
Where two headings read alike, the source gives them in different places.

Target: T1, recombinant human GluN1/GluN2A receptor (Homo sapiens, UniProt Q05586+Q12879)
T1 construct: expressed in transfected cells; host or cells: HEK293, tetracycline-inducible expression
Assay: Whole-cell patch clamp of mammalian cells (Syncropatch 384i), NMDA modulation
Format: cell-based
Conditions: HEK293 cells, human GluN1/GluN2A, glutamate 1 μM / glycine 100 μM, -80 mV, peak amplitude increase; for EC50: read-out: EC50
Method in brief: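 Modulation read as fold rise in peak current, (Icomp/Icontrol)−1, from 8 concentrations with ≥2 wells each, four-parameter fit. Compound pre-incubated 120 s then co-applied with 1 μM glutamate plus 100 μM glycine; tetracycline-inducible HEK293 GluN1/GluN2A cells clamped at −80 mV.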

T1 sequence (Q12879 23-1464, other chains not shown): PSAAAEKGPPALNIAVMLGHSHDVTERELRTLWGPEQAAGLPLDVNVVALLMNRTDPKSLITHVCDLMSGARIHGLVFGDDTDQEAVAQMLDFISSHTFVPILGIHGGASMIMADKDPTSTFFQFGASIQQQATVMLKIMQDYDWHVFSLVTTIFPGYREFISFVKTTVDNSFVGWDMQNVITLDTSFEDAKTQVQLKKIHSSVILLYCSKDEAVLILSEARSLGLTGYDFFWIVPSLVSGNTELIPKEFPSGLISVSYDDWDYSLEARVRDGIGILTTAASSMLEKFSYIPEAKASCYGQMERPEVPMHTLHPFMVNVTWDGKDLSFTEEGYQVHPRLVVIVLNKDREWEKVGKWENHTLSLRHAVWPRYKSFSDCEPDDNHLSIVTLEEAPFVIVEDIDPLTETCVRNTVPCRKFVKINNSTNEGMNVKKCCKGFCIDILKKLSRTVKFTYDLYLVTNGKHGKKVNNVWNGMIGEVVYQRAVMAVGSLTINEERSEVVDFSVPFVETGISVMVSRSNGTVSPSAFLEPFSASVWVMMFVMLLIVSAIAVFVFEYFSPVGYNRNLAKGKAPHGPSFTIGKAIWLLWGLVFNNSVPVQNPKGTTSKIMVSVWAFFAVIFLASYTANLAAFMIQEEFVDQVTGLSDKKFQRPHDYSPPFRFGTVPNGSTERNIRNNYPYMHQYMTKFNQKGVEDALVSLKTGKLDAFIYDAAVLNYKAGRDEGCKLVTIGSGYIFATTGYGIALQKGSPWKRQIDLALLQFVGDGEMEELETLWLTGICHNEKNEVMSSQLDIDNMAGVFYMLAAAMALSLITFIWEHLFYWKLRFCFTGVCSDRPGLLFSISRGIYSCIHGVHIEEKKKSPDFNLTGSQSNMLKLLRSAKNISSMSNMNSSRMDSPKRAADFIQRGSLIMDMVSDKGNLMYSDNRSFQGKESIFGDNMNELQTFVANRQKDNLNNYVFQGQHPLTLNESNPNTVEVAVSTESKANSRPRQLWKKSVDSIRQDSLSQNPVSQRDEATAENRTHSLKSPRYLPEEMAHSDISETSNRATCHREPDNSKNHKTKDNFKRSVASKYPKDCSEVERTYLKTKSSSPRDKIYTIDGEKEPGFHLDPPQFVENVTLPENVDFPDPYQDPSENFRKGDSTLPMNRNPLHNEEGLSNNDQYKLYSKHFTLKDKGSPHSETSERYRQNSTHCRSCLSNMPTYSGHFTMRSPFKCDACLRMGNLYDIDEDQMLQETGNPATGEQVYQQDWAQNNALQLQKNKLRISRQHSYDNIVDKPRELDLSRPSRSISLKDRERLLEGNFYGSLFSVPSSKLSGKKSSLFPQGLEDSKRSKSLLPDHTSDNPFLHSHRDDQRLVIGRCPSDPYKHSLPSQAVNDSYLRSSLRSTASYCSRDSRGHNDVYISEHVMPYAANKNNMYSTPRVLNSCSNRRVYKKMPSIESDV

## CC[C@]1(O)CC[C@@H]2CC[C@@H]3[C@H](CC[C@]4(C)[C@@H]([C@H](C)CC[C@](C)(O)C(F)(F)F)CC[C@@H]34)[C@@]2(C)CC1 [Compound D-4, (1R,3aS,3bR,5aS,8S,10aS,10bS,12aR)-8-ethyl-10a,12a-dimethyl-1-((2R,5S)-6,6,6-trifluoro-5-hydroxy-5-methylhexan-2-yl)octadecahydrocyclohepta[a]cyclopenta[f]naphthalen-8-ol]
Table D-2
  EC50: > 1000 nM

## CC[C@]1(O)CC[C@@]2(C)[C@@H](CC[C@@H]3[C@@H]2CC[C@]2(C)[C@@H]([C@H](CC[C@H](O)C(C)C)C(F)(F)F)CC[C@@H]32)C1 [Compound A-17, (3S,5S,8R,9S,10S,13S,14S,17R)-3-ethyl-10,13-dimethyl-17-((2S,5S)-1,1,1-trifluoro-5-hydroxy-6-methylheptan-2-yl)hexadecahydro-1H-cyclopenta[a]phenanthren-3-ol]
Table A-2
  EC50: > 1000 nM

## C[C@H](CC[C@@H](O)C1(C#N)CCC1)[C@H]1CC[C@H]2[C@@H]3CC=C4C[C@@](C)(O)CC[C@]4(C)[C@H]3CC[C@]12C [Compound C-24, 1-((1R,4R)-1-hydroxy-4-((3S,8S,9S,10R,13R,14S,17R)-3-hydroxy-3,10,13-trimethyl-2,3,4,7,8,9,10,11,12,13,14,15,16,17-tetradecahydro-1H-cyclopenta[a]phenanthren-17-yl)pentyl)cyclobutane-1-carbonitrile]
Table C-2
  EC50: 1 to 100 nM

## CC[C@]1(O)CC[C@]2(C)C3=CC[C@]4(C)[C@@H]([C@H](C)CCCC(C)(C)O)CC[C@H]4[C@@H]3CC[C@H]2C1 [Compound E-1, (3S,5S,8S,10S,13R,14S,17R)-3-ethyl-17-((R)-6-hydroxy-6-methylheptan-2-yl)-10,13-dimethyl-2,3,4,5,6,7,8,10,12,13,14,15,16,17-tetradecahydro-1H-cyclopenta[a]phenanthren-3-ol]
Table E-2
  Emax: < 100%
  EC50: 1 to 100 nM

## CC[C@]1(O)CC[C@@]2(CC)[C@@H](CC[C@H]3[C@@H]4CC[C@H]([C@H](C)CC[C@@](C)(O)C(F)(F)F)[C@@]4(C)CC[C@@H]32)C1 [Compound G-4, (3S,5S,8S,9S,10S,13R,14S,17R)-3,10-diethyl-13-methyl-17-((2R,5R)-6,6,6-trifluoro-5-hydroxy-5-methylhexan-2-yl)hexadecahydro-1H-cyclopenta[a]phenanthren-3-ol]
Table G-2
  Emax: 100 to 200%
  EC50: 100 to 500 nM

## CC[C@]1(O)CC[C@@]2(C)[C@@H](CC[C@@H]3[C@@H]2CC[C@]2(C)[C@@H]([C@H](C)CC[C@H](O)CC#N)CC[C@@H]32)C1 [Compound C-10, (3S,6R)-6-((3S,5S,8R,9S,10S,13R,14S,17R)-3-ethyl-3-hydroxy-10,13-dimethylhexadecahydro-1H-cyclopenta[a]phenanthren-17-yl)-3-hydroxyheptanenitrile]
Table C-2
  Emax: < 100%
  EC50: 100 to 500 nM

## CC[C@]1(O)CC[C@]2(C)C3=CC[C@]4(C)[C@@H]([C@H](C)CCC5(O)CC5)CC[C@H]4[C@@H]3CC[C@H]2C1 [Compound E-7, (3S,5S,8S,10S,13R,14S,17R)-3-ethyl-17-((R)-4-(1-hydroxycyclopropyl)butan-2-yl)-10,13-dimethyl-2,3,4,5,6,7,8,10,12,13,14,15,16,17-tetradecahydro-1H-cyclopenta[a]phenanthren-3-ol]
Table E-2
  Emax: > 200%
  EC50: 100 to 500 nM
